As a reminder, the logD is the decadic logarithm of the distribution of all forms, ionised or not, between an organic phase and buffer at a given pH. A lower logD goes with a more hydrophilic compound.

The data set is described as follows: Lipophilicity, log D of compound at pH 7.4 by UPLC-MS/MS analysis. It counts as physicochemical. The conditions noted are these: buffer.
`COC(=O)[C@H]1CSCc2ccccc2C(=O)OC[C@@H](NC(=O)[C@@H]2CCCN2C(C)=O)CN1` showed a logD of 0.6.

In turn, `COC(=O)[C@H]1CSCc2ccccc2C(=O)OC[C@H](NC(=O)[C@@H]2CCCN2C(C)=O)CN1` registered a logD of 0.65.

On to `COC(=O)[C@@H]1CSCc2ccccc2C(=O)OC[C@@H](NC(=O)[C@@H]2CCCN2C(C)=O)CN1`, for which the logD is 0.43.

Turning to `COC(=O)[C@@H]1CSCc2ccccc2C(=O)OC[C@H](NC(=O)[C@@H]2CCCN2C(C)=O)CN1`, the log distribution coefficient (logD) came to 0.7.

The values are drawn from ChEMBL document CHEMBL4732270, “Cell Permeability of Isomeric Macrocycles: Predictions and NMR Studies” (ACS Med Chem Lett, 2021).
